In patent US8377980B2, “Hepatitis C virus inhibitors” (Bristol-Myers Squibb Company, priority 2009, dated 2013) one finds EC50 data, which are given here for one molecule.

This test relates to HCV 1b genotype. Nature of the test: HCV Replicon assay (HCV 1b genotype). It counts as cell-based. Particulars: Hepatitis C virus; HCV 1b genotype replicon; range class; read-out: EC50-Range. The procedure: An HCV Replicon assay was utilized in the present disclosure, and was prepared, conducted and validated as described in commonly owned PCT/US2006/022197 and in O'Boyle et al., Antimicrob. Agents Chemother., 49(4):1346-1353 (April 2005). Assay methods incorporating luciferase reporters have also been used as described (Apath.com).
HCV-neo replicon cells and replicon cells containing resistance substitutions in the NS5A region were used to test the currently described family of compounds. The compounds were determined to have differing degrees of reduced inhibitory activity on cells containing mutations vs. the corresponding inhibitory potency against wild-type cells. Thus, the compounds of the present disclosure can be effective in inhibiting the function of the HCV NS5A protein and are understood to be as effective in combinations as previously described in application PCT/US2006/022197 and commonly owned WO 04/014852. It should be understood that the compounds of the present disclosure can inhibit multiple genotypes of HCV. […] In one embodiment, compounds of the present disclosure are inhibitory versus 1a, 1b, 2a, 2b, 3a, 4a, and 5a genotypes. EC50 values against HCV 1b are as follows.
(In general: A replicon is a self-replicating genome or part of one, used to study replication in cells.)

As to `COCC[C@H](NC(=O)OC)C(=O)N1[C@@H]2C[C@@H]2C[C@H]1c1nc(-c2ccc(-c3ccc(-c4nc([C@@H]5C[C@H]6C[C@H]6N5C(=O)[C@H](CCOC)NC(=O)OC)[nH]c4Cl)cc3)cc2)c[nH]1` [ZY8], the EC50 is 1 to 10 pM.

What is called EC50 is the concentration needed to bring the measured effect to its halfway point.
